Results reported in patent US9902717B2, “Process of preparing potassium salt of Azilsartan medoxomil” (Unichem Laboratories Limited, priority 2015, dated 2018).

Assay: Stability study of polymorph U of Azilsartan Kamedoxomil at 5±3° C. for 6 months
Assay type: physicochemical
Settings: for 01) Description White to off-white coloured powder / 02) Identification By HPLC: retention time of the major peak should correspond to Azilsartan Kamedoxomil Standard preparation / 03) Loss on drying (at 60° C. under vacuum for 3 hrs) NMT 1.0% w/w / 04) Related substances Method 1: By HPLC (by Area %) i) Azilsartan NMT 1.0% / 04) Related substances Method 1: By HPLC (by Area %) ii) Azilsartan ester NMT 0.3% / 04) Related substances Method 1: By HPLC (by Area %) iii) Impurity at RRT about 1.04 NMT 0.3% / 04) Related substances Method 1: By HPLC (by Area %) iv) Any individual unspecified impurity NMT 0.2% / 04) Related substances Method 1: By HPLC (by Area %) v) Total impurities NMT 2.5% / 04) Related substances Method 2: By GCHS i) Content of 2, 3 butanedione by GCHS: NMT 0.5% / 05) Assay by HPLC (On dried basis) NLT 97.5% w/w and NMT 102.0% w/w: stability testing at 5±3° C.

## CCOc1nc2cccc(C(=O)OCc3oc(=O)oc3C)c2n1Cc1ccc(-c2ccccc2-c2noc(=O)[nH]2)cc1.[K] [polymorph U, (5-methyl-2-oxo-1,3-dioxo-4-yl)methyl-2-ethoxy-1-1{[2′-(5-oxo-4,5-dihydro-1,2,4-oxadiazol-3-yl)biphenyl-4yl]methyl}-1H-benzimidazole-7-carboxylate monopotassium salt]
Stability testing at 5±3° C. for 6 Months
  change in XRPD pattern (polymorphic change): no change
6 M
  01) Description White to off-white coloured powder: White
  02) Identification By HPLC: retention time of the major peak should correspond to Azilsartan Kamedoxomil Standard preparation: Complies
  03) Loss on drying (at 60° C. under vacuum for 3 hrs) NMT 1.0% w/w: 0.26% w/w
  04) Related substances Method 1: By HPLC (by Area %) i) Azilsartan NMT 1.0%: 0.18%
  04) Related substances Method 1: By HPLC (by Area %) ii) Azilsartan ester NMT 0.3%: 0.01%
  04) Related substances Method 1: By HPLC (by Area %) iii) Impurity at RRT about 1.04 NMT 0.3%: 0.08%
  04) Related substances Method 1: By HPLC (by Area %) iv) Any individual unspecified impurity NMT 0.2%: 0.03%
  04) Related substances Method 1: By HPLC (by Area %) v) Total impurities NMT 2.5%: 0.43%
  04) Related substances Method 2: By GCHS i) Content of 2, 3 butanedione by GCHS: NMT 0.5%: 0.13%
  05) Assay by HPLC (On dried basis) NLT 97.5% w/w and NMT 102.0% w/w: 100.3% w/w
Initial
  01) Description White to off-white coloured powder: White
  02) Identification By HPLC: retention time of the major peak should correspond to Azilsartan Kamedoxomil Standard preparation: Complies
  03) Loss on drying (at 60° C. under vacuum for 3 hrs) NMT 1.0% w/w: 0.44% w/w
  04) Related substances Method 1: By HPLC (by Area %) i) Azilsartan NMT 1.0%: 0.19%
  04) Related substances Method 1: By HPLC (by Area %) ii) Azilsartan ester NMT 0.3%: 0.01%
  04) Related substances Method 1: By HPLC (by Area %) iii) Impurity at RRT about 1.04 NMT 0.3%: 0.09%
  04) Related substances Method 1: By HPLC (by Area %) iv) Any individual unspecified impurity NMT 0.2%: 0.03%
  04) Related substances Method 1: By HPLC (by Area %) v) Total impurities NMT 2.5%: 0.56%
  04) Related substances Method 2: By GCHS i) Content of 2, 3 butanedione by GCHS: NMT 0.5%: 0.13% w/w
  05) Assay by HPLC (On dried basis) NLT 97.5% w/w and NMT 102.0% w/w: 101.7 w/w
Studied at 5±3° C.
  Stability: stable
